Test results reported in patent publication US20120034613A1, “Apparatus and Method for Testing Relationships Between Gene Expression and Physical Appearance of Skin” (NSE Products, Inc., priority 2010, published 2012).

Test system: EpidermFT™ Skin Model (EFT-400) full thickness skin cultures
Assay: Affymetrix GeneChip HG U133 Plus 2.0 microarray global gene expression, agent-exposed vs untreated skin cultures
Type: cell-based, human
Conditions: 0.5%, 24 hr

OCc1ccccc1O[C@@H]1O[C@H](CO)[C@@H](O)[C@H](O)[C@H]1O [Salicin, 2-(Hydroxymethyl)phenyl β-D-glucospyranoside]
Direction CYR61 (probe 210764_s_at): up
Fold change CYR61 (probe 210764_s_at): 2.692
Direction PLAUR (probe 210845_s_at): up
Fold change PLAUR (probe 210845_s_at): 2.249
Direction HGF (probe 210998_s_at): up
Fold change HGF (probe 210998_s_at): 4.35
Direction SERPINB4 (probe 211906_s_at): down
Fold change SERPINB4 (probe 211906_s_at): 5.613
Direction CAT (probe 211922_s_at): down
Fold change CAT (probe 211922_s_at): 2.095
Direction IGFBP5 (probe 211958_at): up
Fold change IGFBP5 (probe 211958_at): 2.712
Direction COL4A1 (probe 211981_at): up
Fold change COL4A1 (probe 211981_at): 2.121
Direction RHOB (probe 212099_at): up
Fold change RHOB (probe 212099_at): 3.764
Direction SGPL1 (probe 212321_at): down
Fold change SGPL1 (probe 212321_at): 2.406
Direction SULF1 (probe 212353_at): up
Fold change SULF1 (probe 212353_at): 4.424
Direction LCN2 (probe 212531_at): down
Fold change LCN2 (probe 212531_at): 12.01
Direction PRKCA (probe 213093_at): up
Fold change PRKCA (probe 213093_at): 2.125
Direction STARD13 (probe 213103_at): up
Fold change STARD13 (probe 213103_at): 2.844
Direction HSPA6 (probe 213418_at): up
Fold change HSPA6 (probe 213418_at): 14.24
Direction MFAP5 (probe 213764_s_at): down
Fold change MFAP5 (probe 213764_s_at): 2.112
Direction STARD5 (probe 213820_s_at): down
Fold change STARD5 (probe 213820_s_at): 3.436
Direction SST (probe 213921_at): up
Fold change SST (probe 213921_at): 4.356
Direction PTGER3 (probe 213933_at): down
Fold change PTGER3 (probe 213933_at): 13.58
Direction COL4A6 (probe 213992_at): down
Fold change COL4A6 (probe 213992_at): 4.8
Direction S100A8 (probe 214370_at): up
Fold change S100A8 (probe 214370_at): 2.98
Direction ELL2 (probe 214446_at): up
Fold change ELL2 (probe 214446_at): 2.557
Direction FN1 (probe 214702_at): up
Fold change FN1 (probe 214702_at): 2.71
Direction ADAMTS3 (probe 214913_at): up
Fold change ADAMTS3 (probe 214913_at): 2.145
Direction SOD2 (probe 215078_at): up
Fold change SOD2 (probe 215078_at): 5.712
Direction KLK10 (probe 215808_at): down
Fold change KLK10 (probe 215808_at): 4.673
Direction FNDC3A (probe 215910_s_at): up
Fold change FNDC3A (probe 215910_s_at): 3.663
Direction TNC (probe 216005_at): up
Fold change TNC (probe 216005_at): 2.719
Direction MAP3K4 (probe 216199_s_at): up
Fold change MAP3K4 (probe 216199_s_at): 2.654
Direction NR4A2 (probe 216248_s_at): up
Fold change NR4A2 (probe 216248_s_at): 7.592
Direction LTB4R (probe 216388_s_at): down
Fold change LTB4R (probe 216388_s_at): 2.456
Direction CCL2 (probe 216598_s_at): up
Fold change CCL2 (probe 216598_s_at): 5.407
Direction KLK1 (probe 216699_s_at): down
Fold change KLK1 (probe 216699_s_at): 2.169
Direction NR4A3 (probe 216979_at): up
Fold change NR4A3 (probe 216979_at): 7.204
Direction NAMPT (probe 217738_at): up
Fold change NAMPT (probe 217738_at): 2.668
Direction TSPAN13 (probe 217979_at): down
Fold change TSPAN13 (probe 217979_at): 2.401
Direction PHLDA1 (probe 217997_at): up
Fold change PHLDA1 (probe 217997_at): 3.409
Direction ZC3H12A (probe 218810_at): up
Fold change ZC3H12A (probe 218810_at): 2.117
Direction LASS4 (probe 218922_s_at): down
Fold change LASS4 (probe 218922_s_at): 3.028
Direction KRT23 (probe 218963_s_at): down
Fold change KRT23 (probe 218963_s_at): 10.94
Direction IL20RA (probe 219115_s_at): down
Fold change IL20RA (probe 219115_s_at): 12.07
Direction HSPBAP1 (probe 219284_at): up
Fold change HSPBAP1 (probe 219284_at): 2.08
Direction MREG (probe 219648_at): down
Fold change MREG (probe 219648_at): 2.887
Direction SMPD3 (probe 219695_at): down
Fold change SMPD3 (probe 219695_at): 13.66
Direction IL23A (probe 220054_at): up
Fold change IL23A (probe 220054_at): 2.967
Direction IL22RA1 (probe 220056_at): down
Fold change IL22RA1 (probe 220056_at): 2.023
Direction HYAL4 (probe 220249_at): down
Fold change HYAL4 (probe 220249_at): 3.117
Direction CALML5 (probe 220414_at): down
Fold change CALML5 (probe 220414_at): 8.749
Direction PSORS1C2 (probe 220635_at): down
Fold change PSORS1C2 (probe 220635_at): 19.08
Direction IL19 (probe 220745_at): up
Fold change IL19 (probe 220745_at): 2.278
Direction IL1F7 (probe 221470_s_at): down
Fold change IL1F7 (probe 221470_s_at): 100.5
Direction GDF15 (probe 221577_x_at): up
Fold change GDF15 (probe 221577_x_at): 5.573
Direction HSPB8 (probe 221667_s_at): down
Fold change HSPB8 (probe 221667_s_at): 4.659
Direction HMGCS1 (probe 221750_at): down
Fold change HMGCS1 (probe 221750_at): 2.406
Direction DNAJC10 (probe 221782_at): up
Fold change DNAJC10 (probe 221782_at): 2.553
Direction KLF4 (probe 221841_s_at): down
Fold change KLF4 (probe 221841_s_at): 2.468
Direction CLDN1 (probe 222549_at): down
Fold change CLDN1 (probe 222549_at): 7.758
Direction HPSE (probe 222881_at): down
Fold change HPSE (probe 222881_at): 4.194
